In patent US20250109141A1, “BRD4 PROTEIN DEGRADER COMPOUND, AND PREPARATION METHOD AND USE THEREOF” (Miracure Biotechnology Limited, priority 2023, published 2025):
Where two headings read alike, the source gives them in different places.

Tests used:
22RV1 = assay: Cell proliferation assay (CellTiterGlo, 72 h), 22RV1; assay type: cell-based; details: read-out: 22Rv1 ATP average IC50
Procedure: All incubations were performed at 37° C. in a humidified carbon dioxide incubator.
(§1) The cells were seeded in a 96-well plate (white wall/transparent bottom) at 5000 cells/well and cultured overnight.
(§2) On day 2, A stock solution of the compound at a concentration of 10 mM was subjected to an 8-fold serial dilution to obtain 8 concentration points. 2 μL of the compound solution at each concentration point was added to 98 μL of fresh medium, and the mixture was mixed homogeneously. Then, 5 μL of the compound solution diluted in the medium at each concentration point was added to 100 μL of overnight medium containing the cells, and 2 replicates were set for each concentration. The mixture was cultured for 72 h.
(§3) After 72 h of compound treatment, the plate was equilibrated to room temperature, 100 μL of CellTiterGlo (Promega) was added. The mixture was mixed homogeneously for 2 min, left to stand at room temperature for 10 min, and then read for luminescence values on a SpectraMax M5 microplate reader to evaluate cell viability. The positive control was 1% Tween-20 and the negative control was 0.1% DMSO. IC50 was generated by 4-parameter non-linear regression fitting in GraphPad Prism.

LNCaP = assay: Cell proliferation assay (CellTiterGlo, 72 h), LNCaP; assay type: cell-based; details: LNCap cells, 72 h compound treatment, read-out: LNCap ATP average IC50
Procedure: The cell line used was 22RV1 or LNCaP, and the medium was RPMI-1640 containing 10% FBS and antibiotics. All incubations were performed at 37° C. in a humidified carbon dioxide incubator.
On day 1, cells were digested with 0.25% trypsin (containing EDTA) and collected by centrifugation.
as §1, §2, §3

[1] = Homo sapiens, 22Rv1 cells, 72 h compound treatment, CellTiterGlo

| Structure (SMILES) | IC50 (22RV1; Homo sapiens, 22Rv1, 72 h) [nM] | IC50 (LNCaP; Homo sapiens) [nM] | IC50 (22RV1; [1]) [nM] | other results |
| --- | --- | --- | --- | --- |
| Cc1sc2c(c1C)C(c1ccc(C#CCN)cc1)=N[C@@H](CC(=O)NO)c1nnc(C)n1-2 [Compound 9010] | > 500 | > 500 | – | – |
| Cc1sc2c(c1C)C(c1ccc(C#CCN)cc1)=N[C@@H](CC(=O)N(C)CCO)c1nnc(C)n1-2 [Compound 9075] | 200 to 500 | < 50 | – | – |
| C#CCNC(=O)C[C@@H]1N=C(c2ccc(C#CCN)cc2)c2c(sc(C)c2C)-n2c(C)nnc21 [Compound 9038] | 50 to 200 | 200 to 500 | – | – |
| COC(=O)C[C@@H]1N=C(c2ccc(/C=C/CNO)c(F)c2)c2cc(OC)ccc2-n2c(C)nnc21 [Compound 9213] | < 50 | < 50 | – | – |
| Cc1sc2c(c1C)C(c1ccc(-c3ccc(N)cc3)cc1)=NC(CC(=O)OC(C)(C)C)c1nnc(C)n1-2 (stereo not drawn) [Compound 9086] | – | 200 to 500 | 200 to 500 | – |
| Cc1sc2c(c1C)C(c1ccc(-c3nc(CN)cs3)cc1)=N[C@@H](CC(=O)OC(C)(C)C)c1nnc(C)n1-2 [Compound 9074] | – | – | – | IC50 (22RV1; 22Rv1 cells, 72 h compound treatment, CellTiterGlo): 50 to 200 nM; IC50 (LNCaP): < 50 nM |
| Cc1sc2c(c1C)C(c1ccc(N3CC(CO)C3)cc1)=N[C@@H](CC(=O)OC(C)(C)C)c1nnc(C)n1-2 [Compound 9105] | – | – | 200 to 500 | – |
| Cc1sc2c(c1C)C(c1ccc(C#CC(=O)NN)cc1)=N[C@@H](CC(=O)OC(C)(C)C)c1nnc(C)n1-2 [Compound 9017] | – | < 50 | 200 to 500 | – |
| Cc1sc2c(c1C)C(c1ccc(C3CC3CN)cc1)=N[C@@H](CC(=O)OC(C)(C)C)c1nnc(C)n1-2 (stereo partly drawn) [Compound 9138] | – | > 500 | > 500 | – |
| COc1ccc2c(c1)C(c1ccc(C#CCNC(=N)N)cc1)=N[C@@H](CC(=O)OC(C)(C)C)c1nnc(C)n1-2 [Compound 9159] | > 500 | > 500 | – | – |
| Cc1sc2c(c1C)C(c1ccc(-c3cc(=O)[nH]o3)cc1)=N[C@@H](CC(=O)OC(C)(C)C)c1nnc(C)n1-2 [Compound 9003] | – | 50 to 200 | > 500 | – |
| Cc1sc2c(c1C)C(c1ccc(/C=C/CNS(C)(=O)=O)cc1)=N[C@@H](CC(=O)OC(C)(C)C)c1nnc(C)n1-2 [Compound 9200] | – | 50 to 200 | 50 to 200 | – |
| Cc1sc2c(c1C)C(c1ccc(C#CC(=O)N(C)N)cc1)=N[C@@H](CC(=O)OC(C)(C)C)c1nnc(C)n1-2 [Compound 9023] | – | > 500 | > 500 | – |
| Cc1noc2c1-c1ccccc1C(c1ccc(C#CCN)cc1)=N[C@H]2Cc1nccs1 [Compound 9141] | – | > 500 | > 500 | – |
| Cc1sc2c(c1C)C(c1ccc(N3CC4(CC(N)C4)C3)cc1)=N[C@@H](CC(=O)OC(C)(C)C)c1nnc(C)n1-2 [Compound 9066] | – | < 50 | 200 to 500 | – |
| COc1ccc2c(c1)C(c1ccc(/C=C/CON)cc1)=N[C@@H](CC(=O)OC(C)(C)C)c1nnc(C)n1-2 [Compound 9092] | > 500 | – | – | – |
| Cc1sc2c(c1C)C(c1ccc(C#CCN)cc1)=N[C@@H](CC(=O)O)c1nnc(C)n1-2 [Compound 9021] | > 500 | 50 to 200 | – | – |
| COC(=O)C=Cc1ccc(C2=N[C@@H](CC(=O)OC(C)(C)C)c3nnc(C)n3-c3sc(C)c(C)c32)cc1 [Compound 9118] | – | < 50 | 200 to 500 | – |
| Cc1sc2c(c1C)C(c1ccc(-c3ncc(CN)s3)cc1)=N[C@@H](CC(=O)OC(C)(C)C)c1nnc(C)n1-2 [Compound 9068] | – | 50 to 200 | 50 to 200 | – |
| COC(=O)C[C@@H]1N=C(c2ccc(Cl)cc2)c2c(sc(C(=O)NCCOCCNC(=O)C[C@@H]3N=C(c4ccc(C#CCN)cc4)c4c(sc(C)c4C)-n4c(C)nnc43)c2C)-n2c(C)nnc21 [Compound 9157] | – | 200 to 500 | 200 to 500 | – |
| Cc1sc2c(c1C)C(c1ccc(C3CC3CNO)cc1)=N[C@@H](CC(=O)OC(C)(C)C)c1nnc(C)n1-2 (stereo partly drawn) [Compound 9123] | – | < 50 | < 50 | – |
| Cc1noc2c1-c1ccccc1C(c1ccc(/C=C/CNO)cc1)=N[C@H]2CC(=O)OC(C)(C)C [Compound 9095] | – | 50 to 200 | 50 to 200 | – |
| Cc1sc2c(c1C)C(c1ccc(-c3ccc(CN)n3C)cc1)=N[C@@H](CC(=O)OC(C)(C)C)c1nnc(C)n1-2 [Compound 9062] | – | 50 to 200 | 50 to 200 | – |
| Cc1sc2c(c1C)C(c1ccc(C#CCN)cc1)=N[C@@H](CC13OCC(C)(CO1)CO3)c1nnc(C)n1-2 [Compound 9113] | – | – | – | IC50 (22RV1): 200 to 500 nM |
| Cc1sc2c(c1C)C(c1ccc(C#CCN)cc1)=N[C@@H](CC(=O)N(C)N)c1nnc(C)n1-2 [Compound 9026] | > 500 | > 500 | – | – |

| Structure (SMILES) | IC50 (22RV1; Homo sapiens, 22Rv1, 72 h) [nM] | IC50 (LNCaP; Homo sapiens) [nM] | IC50 (22RV1; [1]) [nM] | other results |
| --- | --- | --- | --- | --- |
| COc1ccc2c(c1)C(c1ccc(/C=C/C=N\O)cc1)=N[C@@H](CC(=O)OC(C)(C)C)c1nnc(C)n1-2 [Compound 9221] | > 500 | 200 to 500 | – | – |
| Cc1sc2c(c1C)C(c1ccc(C#CCN)cc1)=N[C@@H](CC(N)=O)c1nnc(C)n1-2 [Compound 9001] | > 500 | 200 to 500 | – | – |
| Cc1sc2c(c1C)C(c1ccc(-c3cc(=O)n(C)o3)cc1)=N[C@@H](CC(=O)OC(C)(C)C)c1nnc(C)n1-2 [Compound 9053] | – | 50 to 200 | 50 to 200 | – |
| Cc1sc2c(c1C)C(c1ccc(/C=C/CN)cc1)=N[C@@H](Cc1nnc(C(C)C)o1)c1nnc(C)n1-2 [Compound 9168] | – | < 50 | < 50 | – |
| COc1ccc2c(c1)C(c1ccc(C#CCN)cc1)=N[C@@H](CC(=O)O)c1nnc(C)n1-2 [Compound 9070] | > 500 | > 500 | – | – |
| Cc1sc2c(c1C)C(c1ccc(C#CC(N)=O)cc1)=N[C@@H](CC(=O)OC(C)(C)C)c1nnc(C)n1-2 [Compound 9002] | – | < 50 | < 50 | – |
| Cc1sc2c(c1C)C(c1ccc(-c3cc(CN)nn3C)cc1)=N[C@@H](CC(=O)OC(C)(C)C)c1nnc(C)n1-2 [Compound 9058] | – | 200 to 500 | > 500 | – |
| Cc1sc2c(c1C)C(c1ccc(/C=C/CNC(=N)N)cc1)=N[C@@H](CC(=O)OC(C)(C)C)c1nnc(C)n1-2 [Compound 9110] | – | > 500 | > 500 | – |
| COC(=O)C#Cc1ccc(C2=N[C@@H](CC(=O)OC(C)(C)C)c3nnc(C)n3-c3sc(C)c(C)c32)cc1 [Compound 9019] | – | 50 to 200 | 200 to 500 | – |
| CC(=O)ONC/C=C/c1ccc(C2=N[C@@H](CC(=O)OC(C)(C)C)c3nnc(C)n3-c3sc(C)c(C)c32)cc1 [Compound 9144] | – | < 50 | < 50 | – |
| Cc1sc2c(c1C)C(c1ccc(-c3ccc(CN)s3)cc1)=N[C@@H](CC(=O)OC(C)(C)C)c1nnc(C)n1-2 [Compound 9067] | – | 50 to 200 | 50 to 200 | – |
| Cc1sc2c(c1C)C(c1ccc(-c3cccc(N)c3)cc1)=NC(CC(=O)OC(C)(C)C)c1nnc(C)n1-2 (stereo not drawn) [Compound 9087] | – | 200 to 500 | > 500 | – |
| Cc1sc2c(c1C)C(c1ccc(C#CCON)cc1)=N[C@@H](CC(=O)OC(C)(C)C)c1nnc(C)n1-2 [Compound 9041] | – | < 50 | 50 to 200 | – |
| COc1ccc2c(c1)C(c1ccc(/C=C/C=N/O)cc1)=N[C@@H](CC(=O)OC(C)(C)C)c1nnc(C)n1-2 [Compound 9222] | 200 to 500 | 50 to 200 | – | – |
| Cc1sc2c(c1C)C(c1ccc(-c3nc(CN)cs3)cc1)=N[C@@H](CC(=O)OC(C)(C)C)c1nnc(C)n1-2 [Compound 9059] | – | < 50 | 50 to 200 | – |
| Cc1sc2c(c1C)C(c1ccc(C#CCN)cc1)=N[C@@H](CC(=O)Nc1ccc(O)cc1)c1nnc(C)n1-2 [Compound 9012] | 200 to 500 | 50 to 200 | – | – |
| CONC(=O)C#Cc1ccc(C2=N[C@@H](CC(=O)OC(C)(C)C)c3nnc(C)n3-c3sc(C)c(C)c32)cc1 [Compound 9055] | – | < 50 | < 50 | – |
| CC(=O)NNCC#Cc1ccc(C2=N[C@@H](CC(=O)OC(C)(C)C)c3nnc(C)n3-c3sc(C)c(C)c32)cc1 [Compound 9046] | – | 50 to 200 | < 50 | – |
| Cc1sc2c(c1C)C(c1ccc(N3CC(=NO)C3)cc1)=N[C@@H](CC(=O)OC(C)(C)C)c1nnc(C)n1-2 [Compound 9090] | – | 50 to 200 | > 500 | – |
| CC(=O)NOC/C=C/c1ccc(C2=N[C@@H](CC(=O)OC(C)(C)C)c3nnc(C)n3-c3sc(C)c(C)c32)cc1 [Compound 9094] | – | 50 to 200 | 50 to 200 | – |
| Cc1sc2c(c1C)C(c1ccc(C#CCN)cc1)=N[C@@H](CCOC(=O)C(C)(C)C)c1nnc(C)n1-2 [Compound 9091] | 50 to 200 | 200 to 500 | – | – |
| Cc1sc2c(c1C)C(c1ccc(/C=C/CON)cc1)=N[C@@H](CC(=O)OC(C)(C)C)c1nnc(C)n1-2 [Compound 9083] | – | – | < 50 | – |
| Cc1sc2c(c1C)C(c1ccc(C#CC(=O)O)cc1)=N[C@@H](CC(=O)OC(C)(C)C)c1nnc(C)n1-2 [Compound 9020] | – | > 500 | > 500 | – |
| CCOC(=O)C[C@@H]1N=C(c2ccc(C#CCN)cc2)c2cc(OC)ccc2-n2c(C)nnc21 [Compound 9069] | < 50 | < 50 | – | – |
| CCNC(=O)C[C@@H]1N=C(c2ccc(C#CCN)cc2)c2c(sc(C)c2C)-n2c(C)nnc21 [Compound 9013] | 200 to 500 | < 50 | – | – |
